Measured values reported in patent US12312301B2, “Organosulfur compounds” (MARIPOSA THERAPEUTICS LTD., priority 2018, dated 2025).

Tests used:
Format in all cases: cell-based
[1] = test system: Pseudomonas aeruginosa biofilm formation; test: Minimum Biofilm Inhibition Concentration (MBIC) assay, crystal violet biofilm mass; details: for P. aeruginosa MBIC: % of Ajoene positive control IC50: IC50 relative to ajoene run in the same experiment, <100% = more effective than ajoene
Experimental: (§1) Compounds were assayed for their ability to inhibit S. aureus or P. aeruginosa biofilm formation as follows. All compounds were prepared as a 30 mM stock in DMSO and diluted in TSB to 48 μM (S. aureus) or 144 μM (P. aeruginosa). The compounds were further serially diluted two-fold from 48 μM to 0.75 μM (S. aureus) or 144 μM to 2.3 μM (P. aeruginosa) and added to a 96-well plate at 100 μl per well. Overnight cultures of bacteria were diluted to an OD600=0.07 in fresh TSB and 100 μl of the diluted bacterial culture was added to the compound containing wells. The bacteria were incubated in the presence of the compounds overnight at 37° C. After incubation, the planktonic bacteria were removed by three washes using H2O and the remaining biofilm was stained using crystal violet and quantified photometrically at A570. Absorbances corresponding to biofilm mass were plotted versus compound concentration and IC50 values were calculated. Reference: O'Toole GA. Microtiter Dish Biofilm Formation Assay. J. Vis. Exp. (2011).
(§2) MBIC assays of the compounds are carried out alongside ajoene for reference and standardization. The 1050 of ajoene against S. aureus and P. aeruginosa is well-defined and reproducible allowing ajoene to serve as an effective control for the experiment. As such, the 1050 calculated for the tested compounds are compared to the 1050 of ajoene in every experiment and are therefore represented as % of ajoene.
(§3) The compound and the other biofilm inhibitory agents were assayed for their inhibitory activity using the MBIC method as described in Example 4. Absorbances corresponding to biofilm mass were plotted versus concentration of compound and other biofilm inhibitory agents.

[2] = test system: Staphylococcus aureus biofilm formation; test: as above; details: for S. aureus MBIC: % of Ajoene positive control IC50: IC50 relative to ajoene run in the same experiment, <100% = more effective than ajoene
Experimental: as §1, §2, §3

HaCaT cells = test: Scratch closure test; details: 5 μM, HaCaT monolayer; for scratch closure observed at 20 h: in line with EGF positive control; for scratch closure compared to vehicle control: P<0.0001 vs 1% DMSO vehicle
Experimental: HaCaT cells (aneuploidy immortal keratinocyte cell line) were seeded in a 96-well plate at a cell density of 5×10^4 cells per well and incubated overnight at 37° C., 5% CO2 and 95% humidity. Test and control compounds were prepared in 1% DMSO and diluted to a concentration of 5 μM in pre-warmed HaCaT cell media. Cells were washed with pre-warmed PBS and the monolayers mechanically injured by introducing a vertical cell-free area in each individual well, and washed again. Test and control compounds were added and all wells microscopically imaged for time point 0. Cells were incubated as described above and imaged after 20 hours. All conditions were tested with an N of 4 replicates. Scratch closure was analysed using ImageJ software and standard deviation calculated. Scratch closure area reduction was plotted using GraphPrism 8 software.

With `C=CCSSC=CCS(=O)(=O)Cc1ccc(OC)cc1` the “P. aeruginosa MBIC: % of Ajoene positive control IC50” value (shortened to “P. aeruginosa MBIC: %”) [1] was 87 % of Ajoene and the “S. aureus MBIC: % of Ajoene positive control IC50” value (shortened to “S. aureus MBIC: %”) [2] was 4 % of Ajoene.
For `C=CCSSC=CCS(=O)(=O)Cc1ccc(S(C)(=O)=O)cc1`, the “P. aeruginosa MBIC: %” value [1] was 82 % of Ajoene and the “S. aureus MBIC: %” value [2] was 23 % of Ajoene.
In the case of `C=CCSSC=CCS(=O)(=O)Cc1ccc(F)cc1`, the “P. aeruginosa MBIC: %” value [1] is reported as 49.2 % of Ajoene and the “S. aureus MBIC: %” value [2] is reported as 7 % of Ajoene.
In the case of `COc1ccc(CSSC=CCS(=O)(=O)Cc2ccccc2)cc1`, the “P. aeruginosa MBIC: %” value [1] is reported as 56 % of Ajoene and the “S. aureus MBIC: %” value [2] is reported as 75 % of Ajoene.
For `COc1ccc(CSS/C=C/CS(=O)(=O)Cc2ccc(C(F)(F)F)cc2)cc1`, the “P. aeruginosa MBIC: %” value [1] was 27.8 % of Ajoene and the “S. aureus MBIC: %” value [2] was 8.2 % of Ajoene.
With `COC(=O)c1ccc(CSS/C=C/CS(=O)(=O)Cc2ccc(C(F)(F)F)cc2)cc1` the “P. aeruginosa MBIC: %” value [1] was 34.7 % of Ajoene and the “S. aureus MBIC: %” value [2] was 20.5 % of Ajoene.
`C=CCSS/C=C/CS(=O)(=O)Cc1ccc(C(F)(F)F)cc1` was tested, and the “P. aeruginosa MBIC: %” value [1] was 78.7 % of Ajoene and the “S. aureus MBIC: %” value [2] was 55.5 % of Ajoene.
In the case of `COc1ccccc1CSSC=CCS(=O)(=O)Cc1ccc(C(F)(F)F)cc1`, the “P. aeruginosa MBIC: %” value [1] is reported as 13.9 % of Ajoene and the “S. aureus MBIC: %” value [2] is reported as 51 % of Ajoene.
With `COc1cccc(CSSC=CCS(=O)(=O)Cc2ccc(C(F)(F)F)cc2)c1` the “P. aeruginosa MBIC: %” value [1] was 65.3 % of Ajoene and the “S. aureus MBIC: %” value [2] was 20 % of Ajoene.
`COc1ccc(CSSC=CCS(=O)(=O)Cc2ccc(C(F)(F)F)cc2)cc1` was tested, and the “P. aeruginosa MBIC: %” value [1] was 79 % of Ajoene and the “S. aureus MBIC: %” value [2] was 24 % of Ajoene.
For `O=S(=O)(CC=CSSCC1CC1)CC1CC1`, the “P. aeruginosa MBIC: %” value [1] was 57.5 % of Ajoene and the “S. aureus MBIC: %” value [2] was 69.18 % of Ajoene.
For `C=CCSSC=CCS(=O)(=O)Cc1ccco1`, the “P. aeruginosa MBIC: %” value [1] was 11.7 % of Ajoene and the “S. aureus MBIC: %” value [2] was 21.9 % of Ajoene.
`C=CCSSC=CCS(=O)(=O)Cc1cccs1` was tested, and the “P. aeruginosa MBIC: %” value [1] was 29.7 % of Ajoene and the “S. aureus MBIC: %” value [2] was 52 % of Ajoene.
For `C=CCSS/C=C/C[S+]([O-])CC=C` (stereo not shown) [E-ajoene], the “scratch closure observed at 20 h” value (HaCaT cells) was “complete scratch closure” and the “scratch closure compared to vehicle control” value (HaCaT cells) was “enhanced scratch closure”.
In the case of `COc1ccc(CSS/C=C\CS(=O)(=O)Cc2ccc(C(F)(F)F)cc2)cc1` [Test compound 3], the “scratch closure observed at 20 h” value (HaCaT cells) is reported as “complete scratch closure” and the “scratch closure compared to vehicle control” value (HaCaT cells) is reported as “enhanced scratch closure”.
For `O=S(=O)(CC=CSSCc1ccc(C(F)(F)F)cc1)Cc1ccc(C(F)(F)F)cc1` [drawing 50], the “P. aeruginosa MBIC: %” value [1] was 45.3 % of Ajoene and the “S. aureus MBIC: %” value [2] was 28.6 % of Ajoene.
For `C=CCSSC=CCS(=O)(=O)Cc1ccc(C(F)(F)F)cc1` [drawing 51], the “P. aeruginosa MBIC: %” value [1] was 42.75 % of Ajoene and the “S. aureus MBIC: %” value [2] was 38.6 % of Ajoene.
With `C[S+]([O-])CCCCN=C=S` (stereo not shown) [sulforaphane] the “scratch closure observed at 20 h” value (HaCaT cells) was “complete scratch closure” and the “scratch closure compared to vehicle control” value (HaCaT cells) was “enhanced scratch closure”.
`O=S(=O)(CC=CSSCc1ccc(C(F)(F)F)cc1)Cc1ccc(C(F)(F)F)cc1` [test compound 1, 1-(trifluoromethyl)-4-{[(3-{[4-(trifluoromethyl)phenyl]methanesulfonyl}prop-1-en-1-yl)disulfanyl]methyl}benzene] was tested, and the “IC50 against Pseudomonas aeruginosa biofilm compared to ajoene” value ([1]; Example 4, FIG. 2, 144 μM to 2.3 μM, overnight 37° C.) was “lower 1050 than ajoene” and the “IC50 against Staphylococcus aureus biofilm compared to ajoene” value ([2]; Example 4, FIG. 1, 48 μM to 0.75 μM, overnight 37° C.) was “lower 1050 than ajoene”.
For `C=CCSSC=CCS(=O)(=O)Cc1ccc(C(F)(F)F)cc1` [test compound 2, 1-{[-3-(prop-2-en-1-yldisulfanyl)prop-2-ene-1-sulfonyl]methyl}-4-(trifluoromethyl)benzene], the “inhibitory activity on P. aeruginosa biofilm compared to ajoene, cysteamine, gallium nitrate, HDMF, and C-30” value ([1]; Example 6, FIG. 3) was “improved inhibitory activity” and the “inhibitory activity on S. aureus biofilm compared to ajoene, cysteamine, gallium nitrate, HDMF, and C-30” value ([2]; Example 6, FIG. 4) was “improved inhibitory activity”.
